Measurements taken from publication PMC8175484, “Identification and function of ETH receptor networks in the silkworm Bombyx mori” (Scientific Reports, 2021).

Assays:
[1] = tested on: isolated CNS of pharate 5th instar larvae; experiment: Electrophysiology: extracellular motor bursts recorded in nerves of abdominal ganglia of the isolated intact or desheathed CNS; parameters: species or system Bombyx mori; conditions: for ecdysis burst pattern, CCAP or MIPs applied alone: CCAP alone n = 4, MIP-I only or MIP-I-VII mixture n = 5; for time to burst patterns characteristic for pre-ecdysis I and II in dorsal and ventral nerves: isolated nerve cords
Experimental: Specific roles of various neuropeptides produced by the ETHR neurons were determined using electrophysiology technique in the isolated intact or desheathed CNS. Sharp forceps were used to remove the neurolema on the dorsal or ventral side of selected ganglia under physiological saline (see above) and dorsal or ventral nerves of the abdominal ganglia (AG1-7) were attached to plastic suction electrodes. A mixture or individual neuropeptides were then applied in a 300 μl saline bath and induced extracellular motor bursts were recorded using differential AC amplifier 1700 (A-M Systems, Carlsborg, WA, USA) and Axoscope program (Axon Instruments, Union City, CA, USA). Synthetic peptides used in the assay are listed in Supplementary Table S2 online. A mixture of MIPs was adjusted according to its copy number in the precursor: MIP-I (five copies), MIP-II,V (two copies), MIP-III,IV,VI,VII (one copy each)[28].

ETHR-A (BNGR-A6-A) = experiment: Aequorin-based calcium mobilization assay, ETHR-A transiently expressed in CHO-K1 cells; assay type: cell-based, Bombyx mori
Experimental: Pharmacological characterization of ETHR-A (BNGR-A6-A) and ETHR-B (BNGR-A6-B) receptors were carried out in the Chinese hamster ovary (CHO-K1) cells. For expression in CHO-K1 cells, the entire open reading frame for each ETHR was inserted into pcDNA3.1 ( +) vector (Invitrogen, Carlsbad, CA, USA) with a mammalian Kozak translation initiation sequence incorporated at 5´ end and confirmed by DNA sequencing prior to use. The primers used to clone BNGR-A6-A and BNGR-A6-B are listed in Supplementary Table S1 online. For the assay, each receptor was expressed together with the bioluminescent calcium-sensitive reporter aequorin and chimeric Gqs alpha subunit protein that couples receptor activation to the phospholipase C and intracellular Ca^2+ mobilization. […]
The procedures used for the receptor assays were described previously. […] Following cell application to a well, emitted luminescence corresponding to the ligand-induced intracellular Ca^2+ release was monitored in 0.5 s intervals for 20 s using the GloMax-Multi Detection System (Promega, Madison, WI, USA). […] All experiments were replicated three times and collected output data calculated and further analyzed in Excel (Microsoft, Redmond, WA, USA) and GraphPad Prism 6 software (GraphPad Software Inc.). The concentration-dependent response curves, as well as the corresponding EC50 values were calculated using the Prism software. […]

pharate larvae = experiment: ETH injection into pharate larvae, ecdysis behavior; assay type: in vivo, Bombyx mori; conditions: pharate larvae injected with ETH at 8–15 h prior to ecdysis; fail to shed the old cuticle
Experimental: Under normal conditions, the ecdysis behavior lasts for ∼10 min and terminates immediately after the old cuticle is completely shed from the last abdominal segment. However, pharate larvae injected with ETH at 8–15 h prior to ecdysis fail to shed the old cuticle and show strong ecdysis contractions for 1–2 h. […] To determine a site of sensory input that terminates the ecdysis behavior, we peeled off a narrow ring of the old cuticle on abdominal segments 1, 3, 5 or 6 of late pharate 5th instar larvae 1–3 h prior to ecdysis. These larvae invariably initiated normal pre-ecdysis behaviors at the expected time and after ∼1 h switched to peristaltic waves of ecdysis contractions. […] In spite of presence of the old cuticle on the head, thorax and anterior abdomen, strong ecdysis contractions ceased immediately after the posterior cuticle was shed from the last abdominal segment in all larvae (n = 14).

Substance: AWQDLNSAWa [MIP-I]
- ecdysis burst pattern, CCAP or MIPs applied alone ([1]; desheathed CNS): weak prolonged synchronous bursts or no rhythmic pattern

Substance: GQSNNNRGRVLRCFFNAVTCF-OH [AST-CC, allatostatin CC, allatostatin CC of Bombyx mori]
- time to onset of ecdysis bursts ([1]; desheathed CNS dissected 2–6 h prior to ecdysis, 0,3–1 μM, n = 14): 5 to 12 min
- response (ecdysis motor pattern) of earlier pharate or feeding stages ([1]; desheathed CNS, 0,3–1 μM, n = 9): irresponsive

Substance: NADLINSLLALPKDMNDAa [PDF, pigment dispersing factor, pigment dispersing factor of Bombyx mori]
- time to onset of pre-ecdysis II bursts (asynchronous motoneuron activity) in ventral nerves of AG2-7 ([1]; desheathed CNS, 0.3–1 μM, n = 8): 3 to 5 min

Substance: PFCNAFTGCa [CCAP, crustacean cardioactive peptide]
- ecdysis burst pattern, CCAP or MIPs applied alone ([1]; desheathed CNS): less effective

Substance: SFIKPN.NVPRVa [PETH, pre-ecdysis triggering hormone, pre-ecdysis triggering hormone from B. mori, synthetic peptide]
- EC50 (ETHR-A (BNGR-A6-A); CHO-K1 cells co-expressing aequorin and chimeric Gqs alpha subunit, luminescence as % of maximum peak, mean of n = 3, read-out: EC50, BomETHR-A): 9.43 nM
- fold lower sensitivity of ETHR-A to PETH than to ETH (ETHR-A (BNGR-A6-A); from concentration-response curves in CHO cells): ~ 20 fold
- time to burst patterns characteristic for pre-ecdysis I and II in dorsal and ventral nerves ([1]; 0.3–1 μM, n = 14): 5 to 7 min

Substance: SNEAISPFDQGMMGYVIKTNKNIPRMa [ETH, ecdysis triggering hormone, ecdysis triggering hormone from B. mori, synthetic peptide]
- time to initiation of clear ecdysis bursts after ETH ([1]; desheathed CNS activated by ETH, n = 10): 27 to 35 min
- duration of pre-ecdysis before switch to ecdysis motor patterns (ecdysis activation) ([1]; isolated CNS of pharate larvae treated with ETH, dorsal nerves AG4-7): ~ 40 min
- time to burst patterns characteristic for pre-ecdysis I and II in dorsal and ventral nerves ([1]; 0.3–1 μM, n = 14): 5 to 7 min
- duration of strong ecdysis contractions (pharate larvae): 1 to 2 h
